The numbers were not newly measured in patent US12329862B2, “Transdermal therapeutic system containing asenapine” (LTS LOHMANN THERAPIE-SYSTEME AG, priority 2018, dated 2025), which cites them from elsewhere.

Some results are limits rather than exact numbers.

What is called bioavailability is the share of a dose that reaches the circulation, judged against a reference dose that is usually intravenous. With `CN1C[C@H]2c3ccccc3Oc3ccc(Cl)cc3[C@@H]2C1` (relative stereo) [asenapine, (3aRS,12bRS)-rel-5-chloro-2,3,3a,12b-tetrahydro-2-methyl-1H-dibenz[2,3:6,7]oxepino[4,5-c]pyrrole], the bioavailability (if ingested) is < 2%. Further, where the note is “sublingual administration, therapeutic doses”, the terminal disposition half-life is ≥ 24 h. Besides, the “Somnolence and anxiety, share of the patients” value (very common side effects) is listed as ≥ 10%.
